Legend:
[1] = test system: bacteria; experiment: Antibacterial activity; type: cell-based; settings: statement in words
[2] = target: enzyme MraY (Escherichia coli, UniProt P0A6W3); settings: statement in words
[3] = test system: Staphylococcus aureus ATCC607; experiment: Minimum growth inhibitory concentration on agar medium by serial dilution method, Table 14; type: cell-based
Description: Minimum growth inhibitory concentrations (mcg/ml) of caprazene-1′″-amide derivatives of the formula (II) against some of microorganisms were measured on an agar culture medium by a serial dilution method according to the standard method as provided by Japanese Society of Chemotherapy. For the cultivation of Mycobacterium smegmatis (one of […]), however, there was used an agar culture medium with the addition of 1% glycerine (the same applies to in the following tests).
Minimum growth inhibitory concentrations (mcg/ml) of some of the derivative of the formula (VIII) against a variety of microorganisms were measured on an agar medium by a serial dilution method according to the standard method as provided by Japanese Society of Chemotherapy.

[4] = test system: Micrococcus luteus FDA16; experiment: Minimum growth inhibitory concentration on agar culture medium by serial dilution method (Japanese Society of Chemotherapy); type: cell-based
In short: (§1)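 MICs (mcg/ml) were determined by serial dilution on agar culture medium, following the Japanese Society of Chemotherapy standard method.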

[5] = test system: Staphylococcus aureus FDA209P; experiment: as above; type: cell-based
In short: as §1

Sequence of enzyme MraY (P0A6W3 whole entry): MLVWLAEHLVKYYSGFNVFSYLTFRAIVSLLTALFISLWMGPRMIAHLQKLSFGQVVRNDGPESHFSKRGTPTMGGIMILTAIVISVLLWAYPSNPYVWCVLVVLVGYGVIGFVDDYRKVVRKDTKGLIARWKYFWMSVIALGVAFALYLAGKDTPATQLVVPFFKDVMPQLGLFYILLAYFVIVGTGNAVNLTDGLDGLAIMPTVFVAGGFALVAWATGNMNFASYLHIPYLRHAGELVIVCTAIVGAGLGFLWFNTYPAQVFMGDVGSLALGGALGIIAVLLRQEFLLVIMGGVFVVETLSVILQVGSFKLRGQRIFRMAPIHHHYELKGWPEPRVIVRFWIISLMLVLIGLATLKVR

SMILES	antibacterial activity [1]	inhibitory activity against enzyme MraY [2]	Minimum growth inhibitory concentration (mcg/ml) against bacteria Staphylococcus aureus ATCC607 [3]	Minimum growth inhibitory concentration (mcg/ml) against bacteria Micrococcus luteus FDA16 [4]	Minimum growth inhibitory concentration (mcg/ml) against bacteria Staphylococcus aureus FDA209P [5]
CN1C(=O)[C@H](C(O[C@@H]2O[C@H](CN)[C@@H](O)[C@H]2O)[C@H]2O[C@@H](n3ccc(=O)[nH]c3=O)[C@H](O)[C@@H]2O)N(C)CC=C1C(=O)O (stereo partly shown) [Caprazene, caprazene]	no antibacterial activity	inhibitory activity against enzyme MraY	–	–	–
CCCCCCCCCCN1C(=O)C(C(O)CN(C)C(C(=O)NC)C(OC2OC(CN)C(O)C2O)C2OC(n3ccc(=O)[nH]c3=O)C(O)C2O)N(C)C1=O (stereo not shown) [Compound VIII-E]	–	–	6.25 µg/mL	6.25 µg/mL	25 µg/mL
CCCCCCCCCCCN1C(=O)C(C(O)CN(C)C(C(=O)NC)C(OC2OC(CN)C(O)C2O)C2OC(n3ccc(=O)[nH]c3=O)C(O)C2O)N(C)C1=O (stereo not shown) [Compound VIII-F]	–	–	6.25 µg/mL	6.25 µg/mL	25 µg/mL
CCCCCCCCCCCCN1C(=O)C(C(O)CN(C)C(C(=O)NC)C(OC2OC(CN)C(O)C2O)C2OC(n3ccc(=O)[nH]c3=O)C(O)C2O)N(C)C1=O (stereo not shown) [Compound VIII-G]	–	–	12.5 µg/mL	6.25 µg/mL	25 µg/mL
CN1C[C@H](O)[C@@H](C(=O)O)N(C)C(=O)[C@@H]1[C@H](O[C@@H]1O[C@H](CN)[C@@H](O)[C@H]1O)[C@H]1O[C@@H](n2ccc(=O)[nH]c2=O)[C@H](O)[C@@H]1O [caprazol]	no antibacterial activity	inhibitory activity against enzyme MraY	–	–	–

Reference: US8710198B2, “Caprazene as a novel compound and derivatives thereof, and caprazol as a novel compound and derivatives thereof” (Meiji Seika Pharma Co., Ltd., priority 2003, dated 2014)
